Reference: patent publication US20210145802A1, “THERAPY FOR OPHTHALMOLOGICAL CONDITIONS” (WREN THERAPEUTICS LIMITED, priority 2018, published 2021)

Tests used:
[1] = molecular target: A1340 (40-residue isoform of Aβ) (Homo sapiens, UniProt P05067); experiment: A1340 aggregation kinetics; settings: 10 μM A1340; 1.25-fold excess
N2 healthy control worms = experiment: Automated motility assay, healthy worms; format: in vivo, C. elegans; settings: same concentration range; compared with effect in Aβ worms
Description: N2 C. elegans var. Bristol used as controls (also labelled “healthy”). Generation time is about 3 days. Brood size is about 350, wild type phenotype, sub-cultured in 1973 (S. Brenner, The genetics of Caenorhabditis elegans. Genetics. 77, 71-94 (1974)).
Briefly, Netoglitazone stocks (5 mM in 100% DMSO) were used at an appropriate concentration to seed 9-cm NGM plates. Plates were then placed in a laminar flow hood at room temperature (22° C.) for up to 4 hours to dry. C. elegans cultures were then transferred onto media seeded with compound as L4 stage or Day 3 for late treatments and incubated at 24° for the whole experiment. […]
(§1) All C. elegans populations were cultured at 20° C. and developmentally synchronized from a 4 h egg-lay. At 64-72 h post-egg-lay (time zero), individuals were transferred to FUDR plates, and body movements were assessed over the times indicated. At different ages, the animals were washed off the plates with M9 buffer and spread over an OP-50 unseeded 9 cm plate, after which their movements were recorded at 20 fps using a recently developed microscopic procedure (M. Perni et al., Massively parallel C. elegans tracking provides multi-dimensional fingerprints for phenotypic discovery. J. Neurosci. Methods. 306, 57-67 (2018)) for 1 min. Up to 600 animals were counted in each experiment in duplicate unless stated otherwise. […]

GMC101 (Aβ worms) [2] = experiment: ROS production (ROS-Glo H2O2 assay) in worms; format: in vivo, C. elegans; settings: 5 μM; administered at L4; D5 of adulthood
Description: ROS-Glo™ H2O2 cell kit assay was used (Promega, Fitchburg, Wis., USA) and adapted for C. elegans studies. The ROS-Glo™ H2O2 Assay is a bioluminescent assay that measures the level of H2O2, a reactive oxygen species (ROS), directly in cell culture or tissue or in defined enzyme reactions. A derivatized luciferin substrate is incubated with sample and reacts directly with H2O2 to generate a luciferin precursor. Worms treated with 5 μM Netoglitazone in 1% DMSO or 1% DMSO only were washed using M9 buffer out the NGM plates. The buffer was then changed 3 times to remove the excess bacteria. Worm pellets were then divided in three wells and 80 μl of worm pellet (around 200 worms/well) was incubated for 6 h at RT with 20 μl of a ROS Substrate Solution (Promega, Fitchburg, Wis., USA); mild shaking at 300 rpm was used to avoid worm sedimentation; afterwards, worms were incubated for ca. 20 min with 100 μl of the detection solution; luminescence was then measured with a Clariostar (BMG Labtech, Aylesbury, UK).

Aβ42 = molecular target: T1, Aβ42 (Homo sapiens, UniProt P05067); experiment: Chemical kinetics analysis of Aβ42 aggregation profiles (rate constants); format: biochemical; settings: 2 μM Aβ42; increasing compound concentrations
T1 construct: […]; made in house; host or cells: E. coli BL21 Gold (DE3)
T1 sequence (P05067 671-713): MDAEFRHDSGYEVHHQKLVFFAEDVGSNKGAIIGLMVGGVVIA
Text: The time evolution of the total fibril mass concentration is described as a function only of the initial conditions and the rate constants of the system by the integrated rate law given by Eq. (54) in Cohen et al., J Chem Phys 135, 065106, 2011.
These are related to the rate of formation of new aggregates through primary pathways λ=√{square root over (2k+knm(0)^n^c)} and through secondary pathways κ=√{square root over (2k+k2m(0)^n^2^+1)}, where the initial concentration of soluble monomers is denoted by m(0), nc and n2 describe the dependencies of the primary and secondary pathways on the monomer concentration (nc=n2=2 for Aβ42), and kn, k+ and k2 are the rate constants of the primary nucleation, elongation and secondary nucleation, respectively (Cohen et al., Proc Natl Acad Sci USA, 110(24), 9758-63, 2013). […]
A quantitative analysis was carried out on the effects of the molecules by matching the experimental aggregation profiles to kinetic curves calculated using the rate laws derived from a master equation that relates the time evolution of fibril formation to the rate constants of the different microscopic events. In this approach, the aggregation profiles in the presence of an inhibitor are described by introducing into the rate laws suitable perturbations to each of the microscopic rate constants evaluated in the absence of the inhibitor. […]

GMC101 (Aβ worms) [3] = experiment: Automated motility assay, Aβ worms; format: in vivo, C. elegans
Description: GMC101 dvIs100[unc-54p::A-beta-1-42::unc-54 3′UTR+mt1-2p::GFP]. mt1-2p::GFP produces constitutive expression of GFP in intestinal cells. unc-54p::A-beta-1-42 expresses full-length human Aβ42 peptide in body wall muscle cells that aggregates in vivo. Shifting L4 or young adult animals from 20° to 24° C. causes paralysis (G. McColl et al., Utility of an improved model of amyloid-beta (Aβ1-42) toxicity in Caenorhabditis elegans for drug screening for Alzheimer's disease. Mol Neurodegener. 7, 57 (2012));
Briefly, Netoglitazone stocks (5 mM in 100% DMSO) were used at an appropriate concentration to seed 9-cm NGM plates. Plates were then placed in a laminar flow hood at room temperature (22° C.) for up to 4 hours to dry. C. elegans cultures were then transferred onto media seeded with compound as L4 stage or Day 3 for late treatments and incubated at 24° for the whole experiment. Experiments were carried out at different Netoglitazone concentrations ranging from 0.05 to 500 μM in 1% DMSO. As controls, plates seeded only with 1% DMSO were used.
as §1
In order to screen for the effect of therapeutics in the most robust way, a wide field-of-view nematode-tracking platform (WF-NTP) was used, which enables the simultaneous investigation of multiple phenotypic readouts on large worm populations. […]

Chain of A1340 (40-residue isoform of Aβ) (P05067 672-711 limits assumed): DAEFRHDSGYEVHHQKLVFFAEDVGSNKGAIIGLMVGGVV

Compound: O=C1NC(=O)C(Cc2ccc3cc(OCc4ccccc4F)ccc3c2)S1 (stereo not shown) [Netoglitazone]
- inhibition of A1340 aggregation [1]: able to inhibit A1340 aggregation
- effect on mobility of healthy worms (N2 healthy control worms): negligible
- levels of ROS production (GMC101 (Aβ worms) [2]): significantly decreased the levels of oxidative species
- effect on rate constants of primary (knk+) and secondary (k2k+) pathways (Aβ42): can affect both nucleation pathways
- mobility of Aβ worms after treatment at L4 (GMC101 (Aβ worms) [3]; 0-10 μM, administered at L4): greatly improves the mobility
- mobility after late administration (GMC101 (Aβ worms) [3]; administered at D3, D5 of adulthood): increase
- concentration range of best protective effect on mobility (GMC101 (Aβ worms) [3]; administered at L4, observed at D3 of adulthood): 0.5 to 5 µM
